Source: patent US20230085307A1, “PYRIDAZINONE COMPOUND AND HERBICIDE” (NISSAN CHEMICAL CORPORATION, priority 2019, published 2023)

Assays:
[1] = system: late watergrass; test: Test Example 2: herbicidal activity, application during weed generation under submerged conditions (Table 17, symbol A); assay type: in vivo, late watergrass (Echinochloa oryzicola); conditions: AAH 320 g/ha; application during weed generation, submerged conditions
How it was run: (§1)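 Herbicide emulsion, diluted with water to the chosen amount, is applied onto 4 cm floodwater over alluvial soil where the weeds were co-sown and raised at 25–30° C. Application timing: 1–2 leaves. Assessment: three weeks afterwards.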

[2] = system: Japanese bulrush; test: Test Example 2: herbicidal activity, application during weed generation under submerged conditions (Table 17, symbol B); assay type: in vivo, Japanese bulrush (Schoenoplectus juncoides); conditions: AAH 320 g/ha; application during weed generation, submerged conditions
How it was run: as §1

[3] = system: oval-leafed pondweed; test: Test Example 2: herbicidal activity, application during weed generation under submerged conditions (Table 17, symbol C); assay type: in vivo, oval-leafed pondweed (Monochoria vaginalis); conditions: AAH 320 g/ha; application during weed generation, submerged conditions
How it was run: as §1

[4] = system: barnyard grass; test: Test Example 3: herbicidal effect by foliage application, Wagner pot (Table 18, symbol H); assay type: in vivo, barnyard grass (Echinochloa crus-galli); conditions: amount of applied herbicide 320 g/ha
How it was run: (§2)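 Plants were sown in alluvial soil held under 0.1–0.5 cm standing water and grown 14 days in a greenhouse at 25–30 °C. An emulsifiable formulation, water-diluted to the set dose, was then sprayed onto the foliage, and effects were scored three weeks later using previously defined criteria.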

[5] = system: Chinese sprangletop; test: Test Example 3: herbicidal effect by foliage application, Wagner pot (Table 18, symbol D); assay type: in vivo, chinese sprangletop (Leptochloa chinensis); conditions: amount of applied herbicide 320 g/ha
How it was run: as §2

[6] = system: rice flat sedge; test: Test Example 3: herbicidal effect by foliage application, Wagner pot (Table 18, symbol E); assay type: in vivo, rice flat sedge (Cyperus iria); conditions: amount of applied herbicide 320 g/ha
How it was run: as §2

[7] = system: southern crabgrass; test: Test Example 4: herbicidal effect by soil treatment (Table 19, symbol F); assay type: in vivo, southern crabgrass (Digitaria ciliaris); conditions: amount of applied herbicide 320 g/ha
How it was run: (§3)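 Pre-emergence style soil spray: seeds under ~1.5 cm sterilized diluvial soil received a uniform coat of emulsion diluted to the predetermined herbicide amount. Greenhouse 25–30° C; readout at week three on previously defined criteria.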

[8] = system: green foxtail; test: Test Example 4: herbicidal effect by soil treatment (Table 19, symbol G); assay type: in vivo, green foxtail (Setaria viridis); conditions: amount of applied herbicide 320 g/ha
How it was run: as §3

[9] = system: barnyard grass; test: Test Example 4: herbicidal effect by soil treatment (Table 19, symbol H); assay type: in vivo, barnyard grass (Echinochloa crus-galli); conditions: amount of applied herbicide 320 g/ha
How it was run: as §3

[10] = system: wild oat; test: Test Example 4: herbicidal effect by soil treatment (Table 19, symbol I); assay type: in vivo, wild oat (Avena fatua); conditions: amount of applied herbicide 320 g/ha
How it was run: as §3

[11] = system: Italian ryegrass; test: Test Example 4: herbicidal effect by soil treatment (Table 19, symbol K); assay type: in vivo, Italian ryegrass (Lolium multiflorum); conditions: amount of applied herbicide 320 g/ha
How it was run: as §3

[12] = system: windgrass; test: Test Example 4: herbicidal effect by soil treatment (Table 19, symbol L); assay type: in vivo, windgrass (Apera spica-venti); conditions: amount of applied herbicide 320 g/ha
How it was run: as §3

[13] = system: velvetleaf; test: Test Example 4: herbicidal effect by soil treatment (Table 19, symbol M); assay type: in vivo, velvetleaf (Abutilon theophrasti); conditions: amount of applied herbicide 320 g/ha
How it was run: as §3

[14] = system: redroot pigweed; test: Test Example 4: herbicidal effect by soil treatment (Table 19, symbol N); assay type: in vivo, redroot pigweed (Amaranthus retroflexus); conditions: amount of applied herbicide 320 g/ha
How it was run: as §3

[15] = system: lambsquarters; test: Test Example 4: herbicidal effect by soil treatment (Table 19, symbol O); assay type: in vivo, lambsquarters (Chenopodium album); conditions: amount of applied herbicide 320 g/ha
How it was run: as §3

[16] = system: chickweed; test: Test Example 4: herbicidal effect by soil treatment (Table 19, symbol P); assay type: in vivo, common chickweed (Stellaria media); conditions: amount of applied herbicide 320 g/ha
How it was run: as §3

[17] = system: false cleavers; test: Test Example 4: herbicidal effect by soil treatment (Table 19, symbol Q); assay type: in vivo, false cleavers (Galium spurium); conditions: amount of applied herbicide 320 g/ha
How it was run: as §3

[18] = system: persian speedwell; test: Test Example 4: herbicidal effect by soil treatment (Table 19, symbol R); assay type: in vivo, Persian speedwell (Veronica persica); conditions: amount of applied herbicide 320 g/ha
How it was run: as §3

[19] = system: southern crabgrass; test: Test Example 5: herbicidal effect by foliage application, plastic box (Table 20, symbol F); assay type: in vivo, southern crabgrass (Digitaria ciliaris); conditions: foliage application, 320 g/ha, evaluated three weeks after application
How it was run: (§4)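 Plants were sown into sterilized diluvial soil under about 1.5 cm cover and kept in a greenhouse at 25° C. to 30° C. Fourteen days on, foliage received an even spray of the diluted emulsion. Herbicidal or crop effect was judged three weeks afterwards.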

[20] = system: green foxtail; test: Test Example 5: herbicidal effect by foliage application, plastic box (Table 20, symbol G); assay type: in vivo, green foxtail (Setaria viridis); conditions: foliage application, 320 g/ha, evaluated three weeks after application
How it was run: as §4

[21] = system: barnyard grass; test: Test Example 5: herbicidal effect by foliage application, plastic box (Table 20, symbol H); assay type: in vivo, barnyard grass (Echinochloa crus-galli); conditions: foliage application, 320 g/ha, evaluated three weeks after application
How it was run: as §4

[22] = system: wild oat; test: Test Example 5: herbicidal effect by foliage application, plastic box (Table 20, symbol I); assay type: in vivo, wild oat (Avena fatua); conditions: foliage application, 320 g/ha, evaluated three weeks after application
How it was run: as §4

[23] = system: blackgrass; test: Test Example 5: herbicidal effect by foliage application, plastic box (Table 20, symbol J); assay type: in vivo, blackgrass (Alopecurus myosuroides); conditions: foliage application, 320 g/ha, evaluated three weeks after application
How it was run: as §4

[24] = system: Italian ryegrass; test: Test Example 5: herbicidal effect by foliage application, plastic box (Table 20, symbol K); assay type: in vivo, Italian ryegrass (Lolium multiflorum); conditions: foliage application, 320 g/ha, evaluated three weeks after application
How it was run: as §4

[25] = system: windgrass; test: Test Example 5: herbicidal effect by foliage application, plastic box (Table 20, symbol L); assay type: in vivo, windgrass (Apera spica-venti); conditions: foliage application, 320 g/ha, evaluated three weeks after application
How it was run: as §4

[26] = system: velvetleaf; test: Test Example 5: herbicidal effect by foliage application, plastic box (Table 20, symbol M); assay type: in vivo, velvetleaf (Abutilon theophrasti); conditions: foliage application, 320 g/ha, evaluated three weeks after application
How it was run: as §4

[27] = system: redroot pigweed; test: Test Example 5: herbicidal effect by foliage application, plastic box (Table 20, symbol N); assay type: in vivo, redroot pigweed (Amaranthus retroflexus); conditions: foliage application, 320 g/ha, evaluated three weeks after application
How it was run: as §4

[28] = system: lambsquarters; test: Test Example 5: herbicidal effect by foliage application, plastic box (Table 20, symbol O); assay type: in vivo, lambsquarters (Chenopodium album); conditions: foliage application, 320 g/ha, evaluated three weeks after application
How it was run: as §4

[29] = system: chickweed; test: Test Example 5: herbicidal effect by foliage application, plastic box (Table 20, symbol P); assay type: in vivo, common chickweed (Stellaria media); conditions: foliage application, 320 g/ha, evaluated three weeks after application
How it was run: as §4

[30] = system: false cleavers; test: Test Example 5: herbicidal effect by foliage application, plastic box (Table 20, symbol Q); assay type: in vivo, false cleavers (Galium spurium); conditions: foliage application, 320 g/ha, evaluated three weeks after application
How it was run: as §4

[31] = system: persian speedwell; test: Test Example 5: herbicidal effect by foliage application, plastic box (Table 20, symbol R); assay type: in vivo, Persian speedwell (Veronica persica); conditions: foliage application, 320 g/ha, evaluated three weeks after application
How it was run: as §4

CCCC(=O)Oc1c(C)nn(C)c(=O)c1-c1c(-c2ccc3c(c2)OCCO3)sc2ccc(Cl)cc12 [2-128]
herbicidal effect rating, A: late watergrass [1]: 0 (Herbicidal rate of 5% or less (almost no effect)) | herbicidal effect rating, B: Japanese bulrush [2]: 0 (Herbicidal rate of 5% or less (almost no effect)) | herbicidal effect rating, C: oval-leafed pondweed [3]: 3 (Herbicidal rate of 40% or more and less than 70%) | herbicidal effect on H: barnyard grass [4]: 3 (Herbicidal rate of 40% or more and less than 70%) | herbicidal effect on D: Chinese sprangletop [5]: 0 (Herbicidal rate of 5% or less (almost no effect)) | herbicidal effect on E: rice flat sedge [6]: 0 (Herbicidal rate of 5% or less (almost no effect)) | F: southern crabgrass, herbicidal effect rating [7]: 0 (Herbicidal rate of 5% or less (almost no effect)) | G: green foxtail, herbicidal effect rating [8]: 0 (Herbicidal rate of 5% or less (almost no effect)) | H: barnyard grass, herbicidal effect rating [9]: 0 (Herbicidal rate of 5% or less (almost no effect)) | I: wild oat, herbicidal effect rating [10]: 0 (Herbicidal rate of 5% or less (almost no effect)) | K: Italian ryegrass, herbicidal effect rating [11]: 0 (Herbicidal rate of 5% or less (almost no effect)) | L: windgrass, herbicidal effect rating [12]: 0 (Herbicidal rate of 5% or less (almost no effect)) | M: velvetleaf, herbicidal effect rating [13]: 0 (Herbicidal rate of 5% or less (almost no effect)) | N: redroot pigweed, herbicidal effect rating [14]: 0 (Herbicidal rate of 5% or less (almost no effect)) | O: lambsquarters, herbicidal effect rating [15]: 0 (Herbicidal rate of 5% or less (almost no effect)) | P: chickweed, herbicidal effect rating [16]: 1 (Herbicidal rate of 5% or more and less than 20%) | Q: false cleavers, herbicidal effect rating [17]: 0 (Herbicidal rate of 5% or less (almost no effect)) | R: persian speedwell, herbicidal effect rating [18]: 5 (Herbicidal rate of 90% or more (almost completely withered)) | herbicidal effect on F: southern crabgrass [19]: 0 (Herbicidal rate of 5% or less (almost no effect)) | herbicidal effect on G: green foxtail [20]: 0 (Herbicidal rate of 5% or less (almost no effect)) | herbicidal effect on H: barnyard grass [21]: 0 (Herbicidal rate of 5% or less (almost no effect)) | herbicidal effect on I: wild oat [22]: 0 (Herbicidal rate of 5% or less (almost no effect)) | herbicidal effect on J: blackgrass [23]: 0 (Herbicidal rate of 5% or less (almost no effect)) | herbicidal effect on K: Italian ryegrass [24]: 0 (Herbicidal rate of 5% or less (almost no effect)) | herbicidal effect on L: windgrass [25]: 0 (Herbicidal rate of 5% or less (almost no effect)) | herbicidal effect on M: velvetleaf [26]: 2 (Herbicidal rate of 20% or more and less than 40%) | herbicidal effect on N: redroot pigweed [27]: 3 (Herbicidal rate of 40% or more and less than 70%) | herbicidal effect on O: lambsquarters [28]: 1 (Herbicidal rate of 5% or more and less than 20%) | herbicidal effect on P: chickweed [29]: 5 (Herbicidal rate of 90% or more (almost completely withered)) | herbicidal effect on Q: false cleavers [30]: 0 (Herbicidal rate of 5% or less (almost no effect)) | herbicidal effect on R: persian speedwell [31]: 5 (Herbicidal rate of 90% or more (almost completely withered))
